Data on one compound can be found in PMC8244912, “An oxytocin/vasopressin-related neuropeptide modulates social foraging behavior in the clonal raider ant” (PLoS Biology, 2021).

Test [1] deals with O. biroi inotocin receptor ObiroiItr_A. In words: Calcium imaging (fura-2), full-length receptor isoform A with G protein 16. The conditions noted are these: ObiroiItr_A and G protein 16; fura-2, 510 nm, ex 340/380 nm; peptide for 15 s. It is filed as cell-based, Ooceraea biroi. The method, then: Experiments were conducted following Garrison J.L., et al 2012 [8] with modifications. Human embryonic kidney 293T cells (HEK293T) were cultured in DMEM and supplemented with 10% FBS at 37 °C in a cell incubator containing 5% CO^2. Cells were grown in 35 mm MatTek glass bottom dishes to a level of 60 – 70% confluency. Cells were transfected with a 1:1 ratio of PCDNA3.3 containing ~ 1μg of itcR cDNA (full-length isoform A or truncated isoform H) (See S1 Fig for isoforms) and pcDNA3-alpha 16 (encoding promiscuous G protein 16) using Lipofectamine 2000. Cells were incubated for 24 h at 37 °C and then transferred to 28 °C for another 16-24 h. For control experiments, empty vector was also transfected. On the day of the experiment, the cells were loaded with […] fura-2/AM (Invitrogen) for 25 min at 37 °C. Inotocin peptide diluted in Ringer’s solution was applied to the cells for 15 s with a peristaltic pump, and fluorescence at 510 nm was monitored (excitation at 340/380 nm) using a MetaFluor calcium imaging system with a Nikon Eclipse TE2000U microscope.

The target in test [2] is O. biroi inotocin receptor (ObiroiItr_A) (Ooceraea biroi, UniProt A0A8F5LPT9). In words: Calcium flux, HEK293T cells transfected with full-length inotocin receptor (FLIPR Calcium 4). It is filed as cell-based. The note with it: for HillSlope / LogEC50: variable slope; for LogEC50: X data log of Molar_Inotocin. An excerpt: RNA was isolated in TRIzol using the RNeasy (Qiagen, Germantown, Maryland, USA) purification kit with DNAse I (Qiagen) on-column digestion as in [52] from a sample that contained adult ants, larvae, and pupae and reverse-transcribed into cDNA. Full-length cDNAs for the O. biroi inotocin receptor were PCR amplified with primers 5′-[…]-3′ and 5′-[…]-3′, using the Easy-A high fidelity polymerase (Agilent, Santa Clara, California, USA) to generate PCR products with 5′-Kozak consensus sequences and 3′-A overhangs. The inotocin receptor cDNAs were cloned into the pcDNA3.3 TOPO TA cloning vector (Invitrogen, Waltham, Massachusetts, USA) following manufacturer’s guidelines.
The full-length inotocin receptor cDNA sequence that was cloned and used for calcium assays is ObiroiItr_A (GenBank MW660838; for protein sequence, see S1 Fig). We also tested splice variant ObiroiItr_H (GenBank MW660845; for protein sequence, see S1 Fig), which lacks TM4-7, for calcium activity.
Human embryonic kidney 293T (HEK293T) cells were cultured in DMEM supplemented with 10% FBS at 37°C in a tissue culture incubator with a humidified atmosphere containing 5% CO2. Cells were plated in 10-cm dishes, and, when they reached 60% to 70% confluency, they were transfected with a pcDNA3.3 vector containing approximately 1 ng of inotocin receptor cDNA or an empty vector as a control using Lipofectamine 2000. Cells were transfected directly into poly-D-lysine–coated 384-well plates and incubated for 48 hours at 37°C. Subsequently, cells were incubated with FLIPR Calcium 4 Assay kit dye for 1 hour in the incubator. The fluorescence (excitation, 488 nm; emission, 530 nm) of the wells was recorded using a Flex Station II 384 (Molecular Devices, San Jose, California, USA), […], in sextuplicate (see below for inotocin peptide synthesis). We calculated the EC50 values using Prism (GraphPad Software version 8) nonlinear regression, 4-parameter logistic curve fit. Dose curves were repeated at least 3 times on independently prepared samples and different days.

The test system of a further test is Ooceraea biroi ants. Put plainly: Pharmacological immersion, age- and brood-controlled colonies: distance traveled (automated tracking). The note with it: for foraging activity / distance traveled vs control peptide: immersion in 1 mM, 5 h, n = 20 ants. It is filed as in vivo. An excerpt: Mature O. biroi inotocin peptide (CLITNCPRG) was synthesized and cyclized at The Rockefeller University Proteomics Resource Center, along with a scrambled version of the peptide (NRPCGLTCI) as a negative control with identical amino acid composition.
For the full experiment (Fig 3), we set up 20 experimental colonies of line B ants that were color painted as previously described. Each colony consisted of 16 ants in an airtight Petri dish with 5-cm diameter. Eight ants in each colony were 3 weeks old, and 8 ants in each colony were 20 weeks old. We added ten 3- to 4-day-old larvae to each of 10 colonies and 10 white (young) pupae to each of the remaining 10 colonies. Brood items often die soon after introduction to a colony, so we added 2 extra brood items per colony to ensure there were 8 alive at the start of the experiment. After the ants had settled for 3 days, we adjusted the number of brood items to 8 per colony, after which we performed the pharmacological treatments. The rationale of having a 1:2 larvae-to-workers ratio in this experiment was to assess the possible effect of increased inotocin levels on worker behavior without saturating the brood signal, as ant larvae regulate worker foraging behavior in a dose-dependent manner.
On the day of the experiment, colonies were not fed. To avoid disturbance to the colony as much as possible, half the colony was left untreated, and half was treated. The treatments consisted of immersing the ants in 1 mM solution of freshly dissolved inotocin or control peptide diluted in water and kept on ice. The immersion took place in 1.5-ml Eppendorf tubes that were gently tapped against the bench top for 7 consecutive minutes, after which the liquid was removed using a 1.5-ml transfer pipette. The remaining liquid was removed with a Kimwipe, and ants were transferred to their source colony. In each colony, we treated 2 ants per age category with inotocin and 2 ants per age category with the control peptide. Ants were allowed to recover for 1 hour after the treatment before the start of the video recordings.
Videos were recorded for 5 hours at 5 frames per second using Logitech C910 USB cameras. Individual ants were tracked using anTraX [85]. In short, ants were segmented using a background subtraction and fixed threshold procedure. Blobs in consecutive frames were threaded into sequences using the Horn–Schunk optical flow method and then classified as single ants or multiple ants based on blob size and linkage criteria. Single ant blob sequences were classified into their appropriate IDs as detailed in [85]. Ants that were detected as single blobs were deemed “active,” and their location was recorded (Fig 3B). The activity level of an ant was defined as the total distance traveled, and an activity time course was created for each ant by summing its activity in time bins of 15 minutes for the entire duration of the experiment. All ants in a colony were tracked. The activity across ants from a given condition from all experimental colonies was averaged in each time bin. The resulting curves were fitted with first- or second-order polynomials using nonlinear regression (least squares fit). The fitted curves were compared using extra sum-of-squares F-tests to select for the best fitted model and to compare between fitted curves, and statistical significance thresholds were adjusted for 2 comparisons within experiments using Bonferroni corrections (old inotocin versus old mock and young inotocin versus young mock). […]

Entries after “also recorded” stand apart in the source; their conditions may differ. Where a SMILES comes first, the peptide text is derived from it. Bridges are numbered along the chain shown (N, C = ends).

O. biroi inotocin receptor (ObiroiItr_A), sequence (A0A8F5LPT9 entry or part of it): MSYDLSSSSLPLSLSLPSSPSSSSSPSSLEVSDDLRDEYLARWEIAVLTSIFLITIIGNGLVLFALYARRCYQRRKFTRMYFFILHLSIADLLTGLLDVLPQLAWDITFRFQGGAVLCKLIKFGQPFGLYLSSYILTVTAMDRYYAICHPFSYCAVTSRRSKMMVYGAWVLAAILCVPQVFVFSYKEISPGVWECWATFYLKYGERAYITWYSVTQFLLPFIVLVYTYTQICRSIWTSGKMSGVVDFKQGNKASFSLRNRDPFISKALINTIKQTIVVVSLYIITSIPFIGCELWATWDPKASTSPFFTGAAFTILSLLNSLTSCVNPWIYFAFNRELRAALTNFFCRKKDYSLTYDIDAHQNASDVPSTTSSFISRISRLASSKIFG

In the case of `CC[C@H](C)[C@@H]1NC(=O)[C@H](CC(C)C)NC(=O)[C@@H](N)CSSC[C@@H](C(=O)N2CCC[C@H]2C(=O)N[C@@H](CCCNC(=N)N)C(=O)NCC(N)=O)NC(=O)[C@H](CC(N)=O)NC(=O)[C@H]([C@@H](C)O)NC1=O` [Inotocin] (H-CLITNCPRG-NH2; disulfide 1-6; N-terminus and C-terminus assumed), in test [1], the “calcium signal” value is listed as “Calcium signal is detected”. Besides, the HillSlope in test [2] (Fig 1C data, Experiment 33015, SE 0.01132, 95% CI 0.2802 to 0.3251) is on record as 0.3027; in test [2] (S4A Fig, 032515_plate 2, SE 0.02063, 95% CI 0.2625 to 0.3443) it was 0.3034. Besides, the LogEC50 in test [2] (Fig 1C data, Experiment 33015, SE 0.05558, 95% CI -11.24 to -11.02) is -11.13; in test [2] (S4A Fig, 032515_plate 2, SE 0.1002, 95% CI -11.47 to -11.07) it was -11.27. Besides, the “calcium response” value in test [2] (HEK293T cells expressing full-length itcR) was “responds in a dose-dependent manner to inotocin; also recorded: responded with calcium signals”. Besides, the “half-maximal effective concentration (EC50), in words” value in test [2] (cells transfected with the inotocin receptor, calcium signals) is “picomolar”. Further, the “foraging activity / distance traveled vs control peptide” value in the test with Ooceraea biroi ants (old ants, larvae present, p < 0.0002, Bonferroni corrected) was “forage more than old ants treated with a control peptide; also recorded: displayed increased foraging activity in the presence of larvae; also recorded: had higher average distance traveled than ants under any other experimental condition”; with Ooceraea biroi ants (old ants, pupae present, p = 0.998, p > 0.99, Bonferroni corrected) it was “no difference in foraging activity was found; also recorded: no effect of inotocin treatment was observed”; in the test with Ooceraea biroi ants (young ants, larvae present, p = 0.106, p = 0.109, Bonferroni corrected), “No difference in foraging activity was detected; also recorded: no behavioral difference”; in the test with Ooceraea biroi ants (young ants, pupae present, p < 0.0002, Bonferroni corrected), “foraged more when treated with inotocin; also recorded: slightly increased their activity; also recorded: increased their average distance traveled compared to ants under any other experimental condition”. Further, in the test on Ooceraea biroi ants (overall statement, contingent on age and social context), the “tendency to leave the nest” value is “increases the tendency of ants to leave the nest”.
